# Reference: patent US20230416266A1, “6,7-DIHYDRO-PYRANO[2,3-d]PYRIMIDINE INHIBITORS OF KRAS G12C MUTANT” (Merck Sharp & Dohme Corp., priority 2020, published 2023)
# Read-outs that look alike come from different tables or passages of the source.
# What was measured:
# [1] = molecular target: T1, Biotinylated KRAS G12C protein (KRAS G12C/C51S/C80L/C118S, SEQ ID NO: 1) (Homo sapiens, UniProt P01116, C118S/C51S/C80L/G12C); test: SOS-catalyzed nucleotide exchange assay (TR-FRET); assay type: biochemical; conditions: in vitro apparent potency; preincubation time of 60 minutes prior to addition of SOS
# T1 construct: 183 amino acids; biotin on K10
# T1 sequence (P01116 with tags, fused parts or gaps isoform P01116-2 G12C/C51S/C80L/C118S): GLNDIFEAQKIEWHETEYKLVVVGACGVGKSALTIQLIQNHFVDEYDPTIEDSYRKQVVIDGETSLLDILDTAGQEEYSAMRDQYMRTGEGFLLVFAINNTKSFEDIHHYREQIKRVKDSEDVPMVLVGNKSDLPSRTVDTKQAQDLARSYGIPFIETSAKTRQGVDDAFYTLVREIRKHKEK
# Method: The SOS-catalyzed nucleotide exchange assay utilizes a preformed complex of recombinant biotinylated KRAS protein containing G12C/C51S/C80L/C118S mutations (183 amino acids; biotin on K10; leader sequence which is an AviTag; referred to as SEQ ID NO: 1 or “Biotinylated KRAS G12C protein” hereafter), Bodipy-GDP, and Terbium-streptavidin. Compounds are added to this complex and then after 60 minutes, the mixture is treated with recombinant SOS protein and unlabeled GTP. Small molecule inhibitors stabilize the Bodipy-GDP complex whereas the untreated protein rapidly exchanges Bodipy-GDP for unlabeled GTP resulting in reduced TR-FRET signal.
# Biotinylated KRAS G12C protein (SEQ ID NO: 1) is diluted to 2 μM in an EDTA buffer (20 mM HEPES, 150 mM sodium chloride, 10 mM EDTA, and 0.01% Tween) and incubated at room temperature for one hour. This mixture is then further diluted to 90nM in an assay buffer (20 mM HEPES, 150 mM sodium chloride, 10 mM magnesium chloride, and 0.005% Tween) containing 15 nM of Terbium-Streptavidin (Invitrogen, catalog #PV3577) and 900 nM of Bodipy-GDP and incubated at room temperature for six hours. This solution is referred to as Biotinylated KRAS G12C mixture.
# Each test compound (10 mM stock in DMSO) is diluted in DMSO to make a 10-point, 3-fold dilution series in a 384-well low dead volume microplate (Labcyte, catalog #LP-0200). Once titrations are made, 10 nL of the diluted compounds is acoustically dispensed into a 384-well plate (Corning, catalog #3820) using an Echo 550 (Labcyte).
# Each well of the plate receives 3 μL Biotinylated KRAS G12C mixture that had been incubating for six hours and 3 μL of assay buffer using a BioRAPTR (Beckman Coulter) and is incubated at room temperature for 60 minutes. Each well then receives 3 μL of 240 nM recombinant human SOS protein and 9 mM GTP (Sigma, G8877) in assay buffer and is incubated at room temperature for 60 minutes.
# The time-resolved fluorescence resonance energy transfer signal of the plate is measured on an Envision (PerkinElmer) plate reader: Excitation filter=340 nm; emission1=495 nm; emission2=520 nm; dichroic mirror=D400/D505; delay time=100 μs. The signal of each well is determined as the ratio of the emission at 520 nm to that at 495 nm. Percent effect of each well is determined after normalization to control wells containing DMSO (no effect) or a saturating concentration of inhibitor (max effect). The apparent effect as a function of compound concentration is fit to a four parameter logistic equation.
# [2] = test system: phosphorylation of Erk in NCI-H358 cells; test: Cellular phospho-ERK assay; assay type: cell-based; conditions: 2 hour incubation, ratio of p-Erk vs total Erk, read-out: IC50 (nM) pERK (Cell)
# Method: NCI-H358 cells (ATCC® CRL-5807™) were cultured in T150 flask in growth medium (RPMI medium 1640-GlutaMAX™-I (ThermoFisher Scientific 61870) containing 10% fetal bovine serum (ThermoFisher Scientific 10091148)). The cells were harvested in growth medium after TrypLE (ThermoFisher scientific 12604021) digestion and were seeded in 384-well collagen coated cell culture plate (Corning 356702) at a density of 15,000 cells/well, and incubated at 37° C., 5% CO2 overnight. The compound dose-response titrations were prepared and appropriate amounts of compounds were dispensed in a 384-well intermediate plate using an Echo 550 liquid handler. RPMI medium 1640-GluiaMAX™-I were added to the intermediate plate and transferred to 384-well cell culture plate, which was incubated at 37° C., 5% CO2 for 2 hours. After removal of medium from the plate, cells were lysed in lysis buffer from Alpha SureFire® Ultra™ Multiplex p-Erk and total Erk assay kit (PerkinElmer MPSU-PIERK) containing Halt™ Protease and Phosphotase inhibitor cocktail (ThermoFisher Scientific 78446) at room temperature with constant shaking at 300 rpm for 30 minutes. The cell lysates were then transferred to OptiPlate-384 plate (PerkinElmer 6005620) and the phosphorylation of Erk and total Erk levels were detected by Alpha SureFire Ultra Multiplex p-Erk kit (PerkinElmer MPSU-PIERK) following the manufacturer's protocol. Assay plates were read on an EnVision Multimode Plate Reader (PerkinElmer), and the ratio of p-Erk vs total Erk in each well was used as the final readout. Dose response curves were analyzed using a 4-parameter logistic model to calculate IC50 values using spotfire software.
Structure (SMILES),IC50 [1] [nM],"IC50 ([2]; Homo sapiens, NCI-H358, 2 h) [nM]",IC50 [2] [nM]
"C=CC(=O)N1CCN(c2nc(OC[C@@H]3CCCN3C)nc3c2CCC(c2cccc4cccc(C)c24)O3)C[C@@H]1CC#N (mixture of isomers) [Compound 2, 2-((2S)-1-acryloyl-4-(7-(8-methylnaphthalen-1-yl)-2-(((S)-1-methylpyrrolidin-2-yl)methoxy)-6,7-dihydro-5H-pyrano[2,3-d]pyrimidin-4-yl)piperazin-2-yl)acetonitrile]",17.5,501,
"C=CC(=O)N1CCN(c2nc(OC[C@@H]3CCCN3C)nc3c2CCC(c2c(O)cccc2F)O3)C[C@@H]1CC#N (mixture of isomers) [Compound 3, 2-((2S)-1-acryloyl-4-(7-(2-fluoro-6-hydroxyphenyl)-2-(((S)-1-methylpyrrolidin-2-yl)methoxy)-6,7-dihydro-5H-pyrano[2,3-d]pyrimidin-4-yl)piperazin-2-yl)acetonitrile]",793,15700,
"C=CC(=O)N1CCN(c2nc(C(=O)N[C@H](C)CN(C)C)nc3c2CCC(c2cccc4ccccc24)O3)C[C@@H]1CC#N (mixture of isomers) [Compound 11, 4-((S)-4-Acryloyl-3-(cyanomethyl)piperazin-1-yl)-N-((R)-1-(dimethylamino)propan-2-yl)-7-(naphthalen-1-yl)-6,7-dihydro-5H-pyrano[2,3-d]pyrimidine-2-carboxamide]",1410,21700,
"C=CC(=O)N1CCN(c2nc(OC[C@@H]3CCCN3C)nc3c2CCC(c2cccc4ccc5[nH]ncc5c24)O3)C[C@@H]1CC#N (mixture of isomers) [Compound 12, 2-((2S)-4-(7-(3H-benzo[e]indazol-9-yl)-2-(((S)-1-methylpyrrolidin-2-yl)methoxy)-6,7-dihydro-5H-pyrano[2,3-d]pyrimidin-4-yl)-1-acryloylpiperazin-2-yl)acetonitrile]",87.1,18500,
"C=CC(=O)N1CCN(c2nc(OC[C@@H]3CCCN3C)nc3c2CCC(c2cccc4ccccc24)O3)C[C@@H]1CC#N (single isomer, unassigned) [Compound 1a]",11.4,,578
"C=CC(=O)N1CCN(c2nc(OC[C@@H]3CCCN3C)nc3c2CCC(c2cccc4ccccc24)O3)C[C@@H]1CC#N (single isomer, unassigned) [Compound 1b]",395,,9020
"C=CC(=O)N1CCN(c2nc(OC[C@@H]3CCCN3C)nc3c2CCC(c2c(Cl)c(C)cc4[nH]ncc24)O3)C[C@@H]1CC#N (single isomer, unassigned) [Compound 4a]",104,19200,
"C=CC(=O)N1CCN(c2nc(OC[C@@H]3CCCN3C)nc3c2CCC(c2c(Cl)c(C)cc4[nH]ncc24)O3)C[C@@H]1CC#N (single isomer, unassigned) [Compound 4b]",2690,,30000
"C=CC(=O)N1CCN(c2nc(OC[C@@H]3CCCN3C)nc3c2CCC(c2cccc4c(F)cccc24)O3)C[C@@H]1CC#N (single isomer, unassigned) [Compound 5a]",88.6,6350,
"C=CC(=O)N1CCN(c2nc(OC[C@@H]3CCCN3C)nc3c2CCC(c2cccc4c(F)cccc24)O3)C[C@@H]1CC#N (single isomer, unassigned) [Compound 5b]",195,,10300
"C=CC(=O)N1CCN(c2nc(OC[C@@H]3CCCN3C)nc3c2CC(F)(F)C(c2cccc4ccccc24)O3)C[C@@H]1CC#N (single isomer, unassigned) [Compound 7a]",13.8,,394
"C=CC(=O)N1CCN(c2nc(OC[C@@H]3CCCN3C)nc3c2CC(F)(F)C(c2cccc4ccccc24)O3)C[C@@H]1CC#N (single isomer, unassigned) [Compound 7b]",84.8,,2380
"C=CC(=O)N1CCN(c2nc(OC[C@@H]3CCCN3C)nc3c2CCC(c2cccc4cc(O)ccc24)O3)C[C@@H]1CC#N (single isomer, unassigned) [Compound 8a]",817,26200,
"C=CC(=O)N1CCN(c2nc(OC[C@@H]3CCCN3C)nc3c2CC(C)C(c2cccc4ccccc24)O3)C[C@@H]1CC#N (single isomer, unassigned) [Compound 9a]",259,,13200
"C=CC(=O)N1CCN(c2nc(OC[C@@H]3CCCN3C)nc3c2CC(C)C(c2cccc4ccccc24)O3)C[C@@H]1CC#N (single isomer, unassigned) [Compound 9b]",2130,,21300
"C=CC(=O)N1CCN(c2nc(OC[C@@H]3CCCN3C)nc3c2CC(C)C(c2cccc4ccccc24)O3)C[C@@H]1CC#N (single isomer, unassigned) [Compound 10a]",12.9,,704
"C=CC(=O)N1CCN(c2nc(OC[C@@H]3CCCN3C)nc3c2CC(C)C(c2cccc4ccccc24)O3)C[C@@H]1CC#N (single isomer, unassigned) [Compound 10b]",153,,5230
"C=CC(=O)N1CCN(c2nc(OC[C@@H]3CCCN3C)nc3c2CCC(C)(c2cccc4ccccc24)O3)C[C@@H]1CC#N (stereo partly drawn) [Compound 6, 2-((2S)-1-acryloyl-4-(7-methyl-2-(((S)-1-methylpyrrolidin-2-yl)methoxy)-7-(naphthalen-1-yl)-6,7-dihydro-5H-pyrano[2,3-d]pyrimidin-4-yl)piperazin-2-yl)acetonitrile]",632,24100,
